What was measured:
Assay in all cases: relative viability (nuclei count vs DMSO), 5 days (fraction); higher = more cells survive
Tozasertib + Lapatinib = compound: Cc1cc(Nc2cc(N3CCN(C)CC3)nc(Sc3ccc(NC(=O)C4CC4)cc3)n2)n[nH]1 [Tozasertib] + CS(=O)(=O)CCNCc1ccc(-c2ccc3ncnc(Nc4ccc(OCc5cccc(F)c5)c(Cl)c4)c3c2)o1 [Lapatinib] (partner 2 µM)
Method in brief: (§1)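 Cells from lung cancer lines were seeded into 1536-well plates and, one day later, dosed by pin tool. Treatments were either a single drug or a fixed dose of an anchor drug with five library-drug doses (not always all listed) in √10 steps. After 5 days, nuclei were stained in a one-step fixation (final 0.05% Triton X-100, 1% formaldehyde, 1 ug/ml Hoechst) and counted on 4× images, and relative viability is the treated-to-vehicle nuclei ratio, as the median of duplicate plates.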

Tozasertib + Navitoclax = compound: Cc1cc(Nc2cc(N3CCN(C)CC3)nc(Sc3ccc(NC(=O)C4CC4)cc3)n2)n[nH]1 [Tozasertib] + CC1(C)CCC(c2ccc(Cl)cc2)=C(CN2CCN(c3ccc(C(=O)NS(=O)(=O)c4ccc(N[C@H](CCN5CCOCC5)CSc5ccccc5)c(S(=O)(=O)C(F)(F)F)c4)cc3)CC2)C1 [Navitoclax] (partner 0.5 µM)
Method in brief: as §1

Tozasertib + Bortezomib = compound: Cc1cc(Nc2cc(N3CCN(C)CC3)nc(Sc3ccc(NC(=O)C4CC4)cc3)n2)n[nH]1 [Tozasertib] + CC(C)C[C@H](NC(=O)[C@H](Cc1ccccc1)NC(=O)c1cnccn1)B(O)O [Bortezomib] (partner 0.002 µM)
Method in brief: as §1

Tozasertib + Foretinib = compound: Cc1cc(Nc2cc(N3CCN(C)CC3)nc(Sc3ccc(NC(=O)C4CC4)cc3)n2)n[nH]1 [Tozasertib] + COc1cc2c(Oc3ccc(NC(=O)C4(C(=O)Nc5ccc(F)cc5)CC4)cc3F)ccnc2cc1OCCCN1CCOCC1 [Foretinib] (partner 0.25 µM)
Method in brief: as §1

Tozasertib + Olaparib = compound: Cc1cc(Nc2cc(N3CCN(C)CC3)nc(Sc3ccc(NC(=O)C4CC4)cc3)n2)n[nH]1 [Tozasertib] + O=C(c1cc(Cc2n[nH]c(=O)c3ccccc23)ccc1F)N1CCN(C(=O)C2CC2)CC1 [Olaparib] (partner 8 µM)
Method in brief: as §1

Tozasertib + Alpelisib = compound: Cc1cc(Nc2cc(N3CCN(C)CC3)nc(Sc3ccc(NC(=O)C4CC4)cc3)n2)n[nH]1 [Tozasertib] + Cc1nc(NC(=O)N2CCC[C@H]2C(N)=O)sc1-c1ccnc(C(C)(C)C(F)(F)F)c1 [Alpelisib] (partner 2 µM)
Method in brief: as §1

Tozasertib + Linsitinib = compound: Cc1cc(Nc2cc(N3CCN(C)CC3)nc(Sc3ccc(NC(=O)C4CC4)cc3)n2)n[nH]1 [Tozasertib] + C[C@]1(O)C[C@@H](c2nc(-c3ccc4ccc(-c5ccccc5)nc4c3)c3c(N)nccn32)C1 [Linsitinib] (partner 1 µM)
Method in brief: as §1

Tozasertib + Pictilisib = compound: Cc1cc(Nc2cc(N3CCN(C)CC3)nc(Sc3ccc(NC(=O)C4CC4)cc3)n2)n[nH]1 [Tozasertib] + CS(=O)(=O)N1CCN(Cc2cc3nc(-c4cccc5[nH]ncc45)nc(N4CCOCC4)c3s2)CC1 [Pictilisib] (partner 1 µM)
Method in brief: as §1

Tozasertib + Crizotinib = compound: Cc1cc(Nc2cc(N3CCN(C)CC3)nc(Sc3ccc(NC(=O)C4CC4)cc3)n2)n[nH]1 [Tozasertib] + C[C@@H](Oc1cc(-c2cnn(C3CCNCC3)c2)cnc1N)c1c(Cl)ccc(F)c1Cl [Crizotinib] (partner 1 µM)
Method in brief: as §1

Tozasertib = compound: Cc1cc(Nc2cc(N3CCN(C)CC3)nc(Sc3ccc(NC(=O)C4CC4)cc3)n2)n[nH]1 [Tozasertib]
Method in brief: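 Viability was defined as treated-well nuclei divided by vehicle-well nuclei, with the median taken over replicate plates. Cells from lung cancer lines sat overnight at 37 °C in 1536-well plates, received five √10-spaced library-drug doses by pinning on vehicle-anchored plates, and grew 5 days without medium change before one-step fixation, permeabilisation and Hoechst staining, 4× imaging and MetaXpress nuclear counts. Only plates with control CV under 25% and at least one doubling were kept.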

Tozasertib + Vorinostat = compound: Cc1cc(Nc2cc(N3CCN(C)CC3)nc(Sc3ccc(NC(=O)C4CC4)cc3)n2)n[nH]1 [Tozasertib] + O=C(CCCCCCC(=O)Nc1ccccc1)NO [Vorinostat] (partner 1 µM)
Method in brief: as §1

Cell Line	relative viability (Tozasertib + Lapatinib; first compound 0.004 µM)	relative viability (Tozasertib + Lapatinib; first compound 0.01265 µM)	relative viability (Tozasertib + Lapatinib; first compound 0.04 µM)	relative viability (Tozasertib + Lapatinib; first compound 0.1265 µM)	relative viability (Tozasertib + Navitoclax; first compound 0.004 µM)	relative viability (Tozasertib + Navitoclax; first compound 0.01265 µM)	relative viability (Tozasertib + Navitoclax; first compound 0.04 µM)	relative viability (Tozasertib + Navitoclax; first compound 0.1265 µM)	relative viability (Tozasertib + Bortezomib; first compound 0.004 µM)	relative viability (Tozasertib + Bortezomib; first compound 0.1265 µM)	relative viability (Tozasertib + Foretinib; first compound 0.004 µM)	relative viability (Tozasertib + Foretinib; first compound 0.01265 µM)	relative viability (Tozasertib + Foretinib; first compound 0.04 µM)	relative viability (Tozasertib + Foretinib; first compound 0.1265 µM)	relative viability (Tozasertib + Olaparib; first compound 0.004 µM)	relative viability (Tozasertib + Olaparib; first compound 0.01265 µM)	relative viability (Tozasertib + Olaparib; first compound 0.04 µM)	relative viability (Tozasertib + Olaparib; first compound 0.1265 µM)	relative viability (Tozasertib + Alpelisib; first compound 0.004 µM)	relative viability (Tozasertib + Alpelisib; first compound 0.01265 µM)	further results
Calu-6	1.17	0.983	1.08	0.293	0.85	0.88	0.779	0.153	0.987	0.391	0.946	0.903	0.69	0.229	0.557	0.516	0.595	0.293	1.19	0.96	relative viability (Tozasertib + Bortezomib; first compound 0.01265 µM): 1.03; relative viability (Tozasertib + Bortezomib; first compound 0.04 µM): 1.08; relative viability (Tozasertib + Alpelisib; first compound 0.04 µM): 0.797; relative viability (Tozasertib + Alpelisib; first compound 0.1265 µM): 0.402; relative viability (Tozasertib + Linsitinib; first compound 0.004 µM): 0.952; relative viability (Tozasertib + Linsitinib; first compound 0.01265 µM): 0.853; relative viability (Tozasertib + Linsitinib; first compound 0.04 µM): 1; relative viability (Tozasertib + Linsitinib; first compound 0.1265 µM): 0.309; relative viability (Tozasertib + Pictilisib; first compound 0.004 µM): 0.946; relative viability (Tozasertib + Pictilisib; first compound 0.01265 µM): 0.862; relative viability (Tozasertib + Pictilisib; first compound 0.04 µM): 0.781; relative viability (Tozasertib + Pictilisib; first compound 0.1265 µM): 0.259; relative viability (Tozasertib + Crizotinib; first compound 0.004 µM): 0.796; relative viability (Tozasertib + Crizotinib; first compound 0.04 µM): 0.433; relative viability (Tozasertib + Crizotinib; first compound 0.1265 µM): 0.265; relative viability (Tozasertib; 0.004 µM): 1.06; relative viability (Tozasertib; 0.01265 µM): 0.953; relative viability (Tozasertib; 0.04 µM): 0.998; relative viability (Tozasertib; 0.1265 µM): 0.546
EBC-1	0.237	0.213	0.209	0.173	0.351	0.329	0.372	0.251	0.692	0.367	0.111	0.0987	0.109	0.105	0.697	0.724	0.737	0.608	0.814	0.801	relative viability (Tozasertib + Bortezomib; first compound 0.01265 µM): 0.461; relative viability (Tozasertib + Bortezomib; first compound 0.04 µM): 0.532; relative viability (Tozasertib + Alpelisib; first compound 0.1265 µM): 0.578; relative viability (Tozasertib + Linsitinib; first compound 0.004 µM): 0.866; relative viability (Tozasertib + Linsitinib; first compound 0.01265 µM): 0.841; relative viability (Tozasertib + Linsitinib; first compound 0.04 µM): 0.886; relative viability (Tozasertib + Linsitinib; first compound 0.1265 µM): 0.486; relative viability (Tozasertib + Pictilisib; first compound 0.004 µM): 0.429; relative viability (Tozasertib + Pictilisib; first compound 0.01265 µM): 0.333; relative viability (Tozasertib + Pictilisib; first compound 0.04 µM): 0.371; relative viability (Tozasertib + Pictilisib; first compound 0.1265 µM): 0.39; relative viability (Tozasertib + Crizotinib; first compound 0.004 µM): 0.234; relative viability (Tozasertib + Crizotinib; first compound 0.01265 µM): 0.202; relative viability (Tozasertib + Crizotinib; first compound 0.04 µM): 0.198; relative viability (Tozasertib + Crizotinib; first compound 0.1265 µM): 0.151; relative viability (Tozasertib; 0.004 µM): 1.12; relative viability (Tozasertib; 0.01265 µM): 1.01; relative viability (Tozasertib; 0.04 µM): 1.01; relative viability (Tozasertib; 0.1265 µM): 0.776
IA-LM	0.967	0.838	1.13	0.479	0.969	0.784	0.767	0.797	0.794	0.849	1.38	1.18	1.11	0.914	0.976	0.909	0.779	0.814	0.715	0.753	relative viability (Tozasertib + Vorinostat; first compound 0.04 µM): 0.855; relative viability (Tozasertib + Vorinostat; first compound 0.1265 µM): 0.854; relative viability (Tozasertib + Alpelisib; first compound 0.04 µM): 0.871; relative viability (Tozasertib + Alpelisib; first compound 0.1265 µM): 0.457; relative viability (Tozasertib + Linsitinib; first compound 0.004 µM): 0.697; relative viability (Tozasertib + Linsitinib; first compound 0.01265 µM): 0.564; relative viability (Tozasertib + Linsitinib; first compound 0.04 µM): 0.533; relative viability (Tozasertib + Linsitinib; first compound 0.1265 µM): 0.307; relative viability (Tozasertib + Pictilisib; first compound 0.004 µM): 0.336; relative viability (Tozasertib + Pictilisib; first compound 0.01265 µM): 0.302; relative viability (Tozasertib + Pictilisib; first compound 0.04 µM): 0.457; relative viability (Tozasertib + Pictilisib; first compound 0.1265 µM): 0.265; relative viability (Tozasertib + Crizotinib; first compound 0.004 µM): 0.784; relative viability (Tozasertib + Crizotinib; first compound 0.01265 µM): 1.05; relative viability (Tozasertib + Crizotinib; first compound 0.04 µM): 0.817; relative viability (Tozasertib + Crizotinib; first compound 0.1265 µM): 0.851; relative viability (Tozasertib; 0.004 µM): 1.06; relative viability (Tozasertib; 0.01265 µM): 0.819; relative viability (Tozasertib; 0.04 µM): 0.954; relative viability (Tozasertib; 0.1265 µM): 0.795

Reference: the supplement of paper PMC10307832
